Measurements taken from ChEMBL document CHEMBL4145533, “6,7-Dimorpholinoalkoxy quinazoline derivatives as potent EGFR inhibitors with enhanced antiproliferative activities against tumor cells” (Eur J Med Chem, 2018).
pIC50: −log10 of the molar value. Active and inactive are the calls of the source. The calls are words filed in the database; no cut-off is given here.

Key:
A549 [1] = experiment: Cell cycle arrest in human A549 cells assessed as accumulation at G0/G1 phase at 5 uM after 48 hrs by propidium iodide satining based FACS analysis (reference value: 48.87%); assay type: functional
[2] = molecular target: T1, Epidermal growth factor receptor (Homo sapiens, UniProt P00533); conditions: A549, at 5 µM
T1 sequence (P00533 whole entry): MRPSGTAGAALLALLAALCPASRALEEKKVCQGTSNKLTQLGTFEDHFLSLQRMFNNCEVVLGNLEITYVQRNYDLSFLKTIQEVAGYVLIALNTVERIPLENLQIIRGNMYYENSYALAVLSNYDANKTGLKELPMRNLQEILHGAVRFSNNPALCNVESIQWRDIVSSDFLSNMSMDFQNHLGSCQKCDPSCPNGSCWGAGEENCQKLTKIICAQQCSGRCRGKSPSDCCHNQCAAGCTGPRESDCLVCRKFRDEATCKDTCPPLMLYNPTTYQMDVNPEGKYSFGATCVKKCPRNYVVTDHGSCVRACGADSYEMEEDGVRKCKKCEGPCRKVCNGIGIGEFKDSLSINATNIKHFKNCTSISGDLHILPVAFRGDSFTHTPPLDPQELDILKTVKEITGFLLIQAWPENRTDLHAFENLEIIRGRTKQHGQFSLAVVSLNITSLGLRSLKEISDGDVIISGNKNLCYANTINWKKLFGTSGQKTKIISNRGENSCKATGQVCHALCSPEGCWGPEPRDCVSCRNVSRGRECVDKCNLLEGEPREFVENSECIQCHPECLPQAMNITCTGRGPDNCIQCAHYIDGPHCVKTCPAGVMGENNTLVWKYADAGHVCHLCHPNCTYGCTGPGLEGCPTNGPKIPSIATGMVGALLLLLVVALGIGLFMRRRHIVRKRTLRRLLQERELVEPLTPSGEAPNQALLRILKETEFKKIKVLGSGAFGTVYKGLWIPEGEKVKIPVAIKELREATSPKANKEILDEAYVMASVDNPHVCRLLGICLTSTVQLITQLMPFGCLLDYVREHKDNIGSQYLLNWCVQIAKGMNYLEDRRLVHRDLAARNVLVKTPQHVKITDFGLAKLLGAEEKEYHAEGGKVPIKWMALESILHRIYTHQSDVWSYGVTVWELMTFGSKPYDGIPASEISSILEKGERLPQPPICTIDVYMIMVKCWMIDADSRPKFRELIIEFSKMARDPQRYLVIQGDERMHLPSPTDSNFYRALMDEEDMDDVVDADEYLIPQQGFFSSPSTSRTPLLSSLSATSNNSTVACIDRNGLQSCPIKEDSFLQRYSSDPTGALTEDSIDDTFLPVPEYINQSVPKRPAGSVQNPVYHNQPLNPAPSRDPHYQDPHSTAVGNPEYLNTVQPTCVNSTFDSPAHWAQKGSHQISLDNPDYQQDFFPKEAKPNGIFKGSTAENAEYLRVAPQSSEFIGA
Description: Inhibition of EGF-induced EGFR phosphorylation at Tyrosine residue in human A549 cells at 5 uM preincubated for 2 hrs followed by EGF stimulation measured after 10 mins by Western blot analysis

[3] = molecular target: T1, Epidermal growth factor receptor; assay type: cell-based, HEK293
Description: Inhibition of recombinant human N-terminal His-tagged EGFR (1 to 645 residues) expressed in HEK293 cells by ELISA

A549 [4] = experiment: Cell cycle arrest in human A549 cells assessed as accumulation at G0/G1 phase at 0.5 uM after 48 hrs by propidium iodide satining based FACS analysis (reference value: 48.87%); assay type: functional
A549 [5] = experiment: Induction of apoptosis in human A549 cells assessed as viable cells at 2 uM after 48 hrs by Annexin V-FITC/propidium iodide satining based FACS analysis (reference value: 95.87%); assay type: functional; conditions: A549, 48 h, read-out: Activity
A549 [6] = experiment: Induction of apoptosis in human A549 cells assessed as late apoptotic cells at 4 uM after 48 hrs by Annexin V-FITC/propidium iodide satining based FACS analysis (reference value: 1.21%); assay type: functional
[7] = molecular target: Epidermal growth factor receptor (Homo sapiens, UniProt P00533, L858R); experiment: Inhibition of EGFR L858R mutant (unknown origin) using ULight-poly GT as substrate preincubated for 120 mins followed by substrate addition measured after 2 hrs by spectrophotometric method
Sequence of Epidermal growth factor receptor (Homo sapiens, UniProt P00533, L858R) (P00533 25-1210 L858R limits assumed): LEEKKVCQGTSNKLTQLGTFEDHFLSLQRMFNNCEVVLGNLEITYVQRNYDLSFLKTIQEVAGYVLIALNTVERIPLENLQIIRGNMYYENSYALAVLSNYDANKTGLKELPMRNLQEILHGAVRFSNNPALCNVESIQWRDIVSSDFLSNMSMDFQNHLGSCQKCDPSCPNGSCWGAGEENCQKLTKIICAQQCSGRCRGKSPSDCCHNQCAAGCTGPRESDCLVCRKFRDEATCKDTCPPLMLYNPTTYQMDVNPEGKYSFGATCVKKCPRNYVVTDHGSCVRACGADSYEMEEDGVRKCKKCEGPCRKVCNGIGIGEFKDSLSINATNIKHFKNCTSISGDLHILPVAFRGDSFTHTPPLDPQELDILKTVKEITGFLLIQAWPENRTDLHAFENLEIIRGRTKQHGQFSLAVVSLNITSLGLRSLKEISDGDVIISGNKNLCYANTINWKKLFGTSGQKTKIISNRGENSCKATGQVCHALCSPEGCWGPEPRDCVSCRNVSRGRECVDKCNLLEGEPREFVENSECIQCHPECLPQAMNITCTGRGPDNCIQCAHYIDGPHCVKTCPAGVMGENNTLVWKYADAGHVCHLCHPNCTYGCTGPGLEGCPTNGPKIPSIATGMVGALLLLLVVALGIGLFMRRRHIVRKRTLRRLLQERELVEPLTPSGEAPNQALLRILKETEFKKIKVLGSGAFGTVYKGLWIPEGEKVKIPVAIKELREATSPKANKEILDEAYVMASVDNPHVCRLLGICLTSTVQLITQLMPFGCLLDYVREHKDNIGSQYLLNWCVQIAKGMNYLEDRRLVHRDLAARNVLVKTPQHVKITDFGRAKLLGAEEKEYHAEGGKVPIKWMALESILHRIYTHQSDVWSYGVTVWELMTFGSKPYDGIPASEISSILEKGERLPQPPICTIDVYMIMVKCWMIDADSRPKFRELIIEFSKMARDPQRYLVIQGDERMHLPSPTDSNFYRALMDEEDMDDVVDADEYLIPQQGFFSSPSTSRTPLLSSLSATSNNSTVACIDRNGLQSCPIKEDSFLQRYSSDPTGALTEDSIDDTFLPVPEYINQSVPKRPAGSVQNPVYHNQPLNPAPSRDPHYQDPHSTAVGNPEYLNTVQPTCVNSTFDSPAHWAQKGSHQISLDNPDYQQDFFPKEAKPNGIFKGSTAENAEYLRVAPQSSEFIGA

[8] = molecular target: T1, Epidermal growth factor receptor; experiment: Inhibition of EGF-induced EGFR activation in human A549 cells assessed as reduction in STAT3 phosphorylation at 0.2 to 5 uM preincubated for 2 hrs followed by EGF stimulation measured after 10 mins by Western blot analysis; assay type: cell-based
A549 [9] = experiment: Induction of apoptosis in human A549 cells assessed as necrotic cells at 1 uM after 48 hrs by Annexin V-FITC/propidium iodide satining based FACS analysis (reference value: 0.14%); assay type: functional
[10] = molecular target: T1, Epidermal growth factor receptor; conditions: A549, at 5 µM; remark: listed apart in the source
Description: Inhibition of EGF-induced EGFR phosphorylation at Y992 residue in human A549 cells at 5 uM preincubated for 2 hrs followed by EGF stimulation measured after 10 mins by Western blot analysis

A549 [11] = experiment: Cell cycle arrest in human A549 cells assessed as accumulation at S phase at 0.5 uM after 48 hrs by propidium iodide satining based FACS analysis (reference value: 34.45%); assay type: functional
[12] = molecular target: Epidermal growth factor receptor (Homo sapiens, UniProt P00533, T790M); experiment: Inhibition of EGFR T790M mutant (unknown origin) preincubated for 10 mins followed by TK substrate-botion addition measured after 1 hr by spectrophotometric method
A549 [13] = experiment: Induction of apoptosis in human A549 cells assessed as late apoptotic cells at 2 uM after 48 hrs by Annexin V-FITC/propidium iodide satining based FACS analysis (reference value: 1.21%); assay type: functional
[14] = molecular target: T1, Epidermal growth factor receptor; conditions: A549, at 5 µM; remark: listed apart in the source
Description: Inhibition of EGF-induced EGFR activation in human A549 cells assessed as reduction in Akt phosphorylation at S473 residue at 5 uM preincubated for 2 hrs followed by EGF stimulation measured after 10 mins by Western blot analysis

[15] = molecular target: T1, Epidermal growth factor receptor; experiment: Inhibition of EGF-induced EGFR phosphorylation at Y992 residue in human A549 cells at 0.2 uM preincubated for 2 hrs followed by EGF stimulation measured after 10 mins by Western blot analysis; assay type: cell-based
[16] = molecular target: Epidermal growth factor receptor (Homo sapiens, UniProt P00533, L858R/T790M); experiment: Inhibition of EGFR L858R/T790M double mutant (unknown origin) using ULight-poly GT as substrate preincubated for 30 mins followed by substrate addition measured after 1 hr by spectrophotometric method
Sequence of Epidermal growth factor receptor (Homo sapiens, UniProt P00533, L858R/T790M) (P00533 25-1210 T790M/L858R limits assumed): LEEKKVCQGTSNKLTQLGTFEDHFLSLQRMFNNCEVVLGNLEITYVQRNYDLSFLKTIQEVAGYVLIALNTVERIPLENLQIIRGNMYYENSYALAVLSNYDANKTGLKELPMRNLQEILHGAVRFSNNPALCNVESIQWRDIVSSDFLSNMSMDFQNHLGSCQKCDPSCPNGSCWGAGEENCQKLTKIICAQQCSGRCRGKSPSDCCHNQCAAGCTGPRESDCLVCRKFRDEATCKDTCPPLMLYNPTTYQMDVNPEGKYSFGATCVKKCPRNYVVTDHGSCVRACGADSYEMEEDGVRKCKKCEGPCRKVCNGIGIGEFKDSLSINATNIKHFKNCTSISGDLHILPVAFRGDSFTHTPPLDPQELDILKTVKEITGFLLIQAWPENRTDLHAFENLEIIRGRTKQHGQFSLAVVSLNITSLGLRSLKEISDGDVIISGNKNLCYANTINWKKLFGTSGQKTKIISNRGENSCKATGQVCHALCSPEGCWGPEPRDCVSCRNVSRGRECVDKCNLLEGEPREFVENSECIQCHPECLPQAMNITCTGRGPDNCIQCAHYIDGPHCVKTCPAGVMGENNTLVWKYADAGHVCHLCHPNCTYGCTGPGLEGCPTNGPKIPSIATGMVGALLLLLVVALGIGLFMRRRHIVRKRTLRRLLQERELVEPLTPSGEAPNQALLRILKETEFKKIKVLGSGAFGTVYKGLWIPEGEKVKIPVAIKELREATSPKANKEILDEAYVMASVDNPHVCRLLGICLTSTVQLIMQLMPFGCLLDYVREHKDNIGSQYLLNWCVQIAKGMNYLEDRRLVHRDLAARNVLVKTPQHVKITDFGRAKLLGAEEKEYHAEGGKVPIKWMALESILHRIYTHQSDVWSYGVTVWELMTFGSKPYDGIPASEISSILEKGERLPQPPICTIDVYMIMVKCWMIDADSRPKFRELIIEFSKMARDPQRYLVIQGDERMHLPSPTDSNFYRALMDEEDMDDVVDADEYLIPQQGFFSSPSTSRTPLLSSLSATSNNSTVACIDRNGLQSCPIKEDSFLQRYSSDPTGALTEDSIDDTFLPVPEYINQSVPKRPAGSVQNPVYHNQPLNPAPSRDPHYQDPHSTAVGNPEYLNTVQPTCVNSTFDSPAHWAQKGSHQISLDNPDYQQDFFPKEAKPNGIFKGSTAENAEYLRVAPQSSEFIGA

A549 [17] = experiment: Cell cycle arrest in human A549 cells assessed as accumulation at S phase at 1 uM after 48 hrs by propidium iodide satining based FACS analysis (reference value: 34.45%); assay type: functional
A549 [18] = experiment: Induction of apoptosis in human A549 cells assessed as viable cells at 4 uM after 48 hrs by Annexin V-FITC/propidium iodide satining based FACS analysis (reference value: 95.87%); assay type: functional; conditions: A549, 48 h, read-out: Activity
[19] = tested on: Epidermal growth factor receptor (Homo sapiens), P00533 [L858R,T790M]; experiment: Inhibition of EGF-induced EGFR L858R/T790M double mutant activation in human NCI-H1975 cells assessed as reduction in Akt phosphorylation at S473 residue at 5 uM preincubated for 2 hrs followed by EGF stimulation measured after 10 mins by Western blot analysis; assay type: cell-based
Sequence of Epidermal growth factor receptor (Homo sapiens), P00533 [L858R,T790M] (P00533 whole entry T790M/L858R, looked up): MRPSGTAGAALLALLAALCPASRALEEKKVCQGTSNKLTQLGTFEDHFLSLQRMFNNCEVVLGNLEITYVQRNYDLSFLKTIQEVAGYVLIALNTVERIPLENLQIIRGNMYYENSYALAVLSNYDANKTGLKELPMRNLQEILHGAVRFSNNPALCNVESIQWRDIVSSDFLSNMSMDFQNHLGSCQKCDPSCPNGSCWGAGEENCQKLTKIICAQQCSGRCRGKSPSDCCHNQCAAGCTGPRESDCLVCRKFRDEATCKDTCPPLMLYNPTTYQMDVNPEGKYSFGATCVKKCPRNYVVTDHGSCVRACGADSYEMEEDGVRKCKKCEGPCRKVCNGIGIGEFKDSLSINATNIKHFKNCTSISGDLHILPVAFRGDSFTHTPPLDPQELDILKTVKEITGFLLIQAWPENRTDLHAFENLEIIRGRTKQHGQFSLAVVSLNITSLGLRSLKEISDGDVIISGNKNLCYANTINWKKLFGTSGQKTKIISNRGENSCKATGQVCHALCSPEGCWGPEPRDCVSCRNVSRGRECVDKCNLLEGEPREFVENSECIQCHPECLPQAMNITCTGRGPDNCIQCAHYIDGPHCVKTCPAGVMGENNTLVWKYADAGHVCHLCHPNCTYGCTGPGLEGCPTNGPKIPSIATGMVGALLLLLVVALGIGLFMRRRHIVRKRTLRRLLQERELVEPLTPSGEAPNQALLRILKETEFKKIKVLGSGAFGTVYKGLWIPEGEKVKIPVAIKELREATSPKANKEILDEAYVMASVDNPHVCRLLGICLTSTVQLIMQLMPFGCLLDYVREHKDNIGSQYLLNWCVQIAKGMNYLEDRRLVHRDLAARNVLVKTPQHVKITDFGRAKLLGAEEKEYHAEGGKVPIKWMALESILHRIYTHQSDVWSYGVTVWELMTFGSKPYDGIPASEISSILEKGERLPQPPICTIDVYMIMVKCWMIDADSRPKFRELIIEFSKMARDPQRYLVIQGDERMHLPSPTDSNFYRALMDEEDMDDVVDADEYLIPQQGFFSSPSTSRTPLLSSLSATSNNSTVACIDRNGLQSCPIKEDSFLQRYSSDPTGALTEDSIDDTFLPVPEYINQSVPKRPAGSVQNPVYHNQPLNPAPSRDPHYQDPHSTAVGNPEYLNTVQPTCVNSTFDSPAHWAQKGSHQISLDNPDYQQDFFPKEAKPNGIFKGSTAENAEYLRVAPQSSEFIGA

A549 [20] = experiment: Induction of apoptosis in human A549 cells assessed as early apoptotic cells at 1 uM after 48 hrs by Annexin V-FITC/propidium iodide satining based FACS analysis (reference value: 2.78%); assay type: functional
[21] = molecular target: T1, Epidermal growth factor receptor; experiment: Inhibition of EGF-induced EGFR phosphorylation at Tyrosine residue in human A549 cells at 0.2 uM preincubated for 2 hrs followed by EGF stimulation measured after 10 mins by Western blot analysis; assay type: cell-based
[22] = molecular target: T1, Epidermal growth factor receptor; experiment: Inhibition of EGF-induced EGFR activation in human A549 cells assessed as reduction in Akt phosphorylation at S473 residue at 0.2 uM preincubated for 2 hrs followed by EGF stimulation measured after 10 mins by Western blot analysis; assay type: cell-based
[23] = molecular target: T1, Epidermal growth factor receptor; experiment: Inhibition of EGF-induced EGFR activation in human A549 cells assessed as reduction in ERK1/2 phosphorylation at T202/Y204 residues at 0.2 uM preincubated for 2 hrs followed by EGF stimulation measured after 10 mins by Western blot analysis; assay type: cell-based
A549 [24] = experiment: Induction of apoptosis in human A549 cells assessed as necrotic cells at 2 uM after 48 hrs by Annexin V-FITC/propidium iodide satining based FACS analysis (reference value: 0.14%); assay type: functional
A549 [25] = experiment: Induction of apoptosis in human A549 cells assessed as early apoptotic cells at 4 uM after 48 hrs by Annexin V-FITC/propidium iodide satining based FACS analysis (reference value: 2.78%); assay type: functional
SW480 = experiment: Antiproliferative activity against human SW480 cells harboring wild type EGFR after 72 hrs by MTT assay; assay type: functional, cell-based; conditions: SW480, 72 h
[26] = tested on: Epidermal growth factor receptor (Homo sapiens), P00533 [L858R,T790M]; experiment: Inhibition of EGF-induced EGFR L858R/T790M double mutant activation in human NCI-H1975 cells assessed as reduction in STAT3 phosphorylation at Y705 residue at 5 uM preincubated for 2 hrs followed by EGF stimulation measured after 10 mins by Western blot analysis; assay type: cell-based
A549 [27] = experiment: Cell cycle arrest in human A549 cells assessed as accumulation at G2/M phase at 1 uM after 48 hrs by propidium iodide satining based FACS analysis (reference value: 16.09%); assay type: functional
A549 [28] = experiment: Induction of apoptosis in human A549 cells after 48 hrs by Annexin V-FITC/propidium iodide satining based FACS analysis; assay type: functional, cell-based
A549 [29] = experiment: Cell cycle arrest in human A549 cells assessed as accumulation at S phase at 5 uM after 48 hrs by propidium iodide satining based FACS analysis (reference value: 34.45%); assay type: functional
A549 [30] = experiment: Induction of apoptosis in human A549 cells assessed as viable cells at 1 uM after 48 hrs by Annexin V-FITC/propidium iodide satining based FACS analysis (reference value: 95.87%); assay type: functional; conditions: A549, 48 h, read-out: Activity
A549 [31] = experiment: Cell cycle arrest in human A549 cells assessed as accumulation at S phase at 2 uM after 48 hrs by propidium iodide satining based FACS analysis (reference value: 34.45%); assay type: functional

`Fc1cccc(COc2ccc(Nc3ncnc4cc(OCCCN5CCOCC5)c(OCCCN5CCOCC5)cc34)cc2Cl)c1` was tested, and the Activity (A549 [1]) was 73.54%, the inhibition [2] was “Active” and the pIC50 [3] was 8.15. For the same compound, the Activity (A549 [4]) was 50.78%, the viability at 2 µM (A549 [5]) was 87.9% and the Activity (A549 [6]) was 36.18%. For the same compound, the pIC50 [7] was 6.49, the inhibition [8] was “inactive” and the Activity (A549 [9]) was 0.4%. The inhibition [10] was “Active”, the Activity (A549 [11]) was 33.8% and the pIC50 [12] was 8.03. For the same compound, the Activity (A549 [13]) was 7.37%, the inhibition [14] was “Active” and the inhibition [15] was “Active”. For the same compound, the pIC50 [16] was < 5.70, the Activity (A549 [17]) was 34.83% and the viability at 4 µM (A549 [18]) was 48.4%. For the same compound, the inhibition [19] was “Active”, the Activity (A549 [20]) was 3.9% and the inhibition [21] was “Active”. For the same compound, the inhibition [22] was “Active”, the inhibition [23] was “Active” and the Activity (A549 [24]) was 0.31%. For the same compound, the Activity (A549 [25]) was 14.81%, the pIC50 (SW480) was 5.49 and the inhibition [26] was “inactive”. For the same compound, the Activity (A549 [27]) was 11.69%, the Activity (A549 [28]) was “Dose-dependent effect” and the Activity (A549 [29]) was 17.61%. For the same compound, the viability at 1 µM (A549 [30]) was 92.3% and the Activity (A549 [31]) was 30.54%.
